Earlier results on 3 compounds are cited in patent US7674912B2, “Pro-drugs of N-thiazol-2-yl-benzamide derivatives” (priority 2005, dated 2010).

Read-outs that look alike come from different tables or passages of the source.

For series [1], the system named is unilateral 6-OHDA (6-hydroxydopamine) lesioned mice and rats. The following applies: elicited by a subthreshold dose of levodopa, unilateral 6-OHDA lesioned mice and rats.
The test system of series [2] is non-human primates treated with MPTP.
Series [3] has as its system MPTP treated mice and 6-OHDA-lesioned rats.
Another series relates to mice. To be noted: for total immobility time: mouse tail suspension test.
Where [4] appears, read: mice previously screened for having high immobility time.

As to `CCn1c(=O)c2c(nc(/C=C/c3ccc(OC)c(OC)c3)n2C)n(CC)c1=O` [KW-6002, 8-[(1E)-2-(3,4-dimethoxyphenyl)ethenyl]-1,3-diethyl-3,7-dihydro-7-methyl-1H-purine-2,6-dione], the contralateral rotations entry in series [1] is on record as “enhance contralateral rotations”. Further, the dyskinesias entry in series [2] (in vivo) is “without causing dyskinesias”. The “motor impairment induced by MPTP” value in series [2] (non-human primates) is “significantly improves motor impairment”. In series [3], the “functional loss of dopaminergic nerve terminals in the striatum” value is given as “prevented functional loss of dopaminergic nerve terminals in the striatum” and the “gliosis induced around degenerating neurons” value was “prevented gliosis”. Further, the total immobility time result with mice is “reduced the total immobility time”.

Consider `Nc1nc2c(cnn2CCc2ccccc2)c2nc(-c3ccco3)nn12` [SCH58261, 2-(2-furanyl)-7-(2-phenylethyl)-7H-pyrazolo[4,3-e][1,2,4]triazolo[1,5-c]pyrimidin-5-amine], for which the contralateral rotations result in series [1] is recorded as “enhance contralateral rotations”. Moreover, the results for the immobility entry in the series on mice (setting [4]) and in the series with mice (mice selectively bred for their helplessness) were “reduce immobility” and “reduced immobility”, respectively. For the same compound, the total immobility time entry with mice is “reduced the total immobility time”.

For the compound `Nc1nc(NCCc2ccc(O)cc2)nc2nc(-c3ccco3)nn12` [ZM241385, 4-(2-[7-amino-2-(2-furyl)[1,2,4]triazolo[2,3-a][1,3,5]triazin-5-ylamino]-ethyl)phenol], the immobility entry in the series on mice (setting [4]) was “reduce immobility”.
